Earlier results, collected in US12403129B2, “Isotope-enriched 3-amino-1-propanesulfonic acid derivatives for the treatment of cerebrovascular disease” (RISEN (SUZHOU) PHARMA TECH CO., LTD., priority 2021, dated 2025).
“Also recorded” adds a separate entry of the source.

Conditions: cited from earlier work
[1] = 2-h time point, oral, 0.72 mmol/kg

**Q.** For `[2H]C([2H])(N)CCS(=O)(=O)O` [compound 1, 3-amino-3,3-dideuterium-1-propanesulfonic Acid], which “concentration of metabolite (2-carboxy-1-ethanesulfonic acid) in plasma compared to 3APS (of natural abundance)” value [1] is on record?
**A.** much lower

**Q.** And the “plasma drug concentration compared to 3APS (of natural abundance)” value [1]?
**A.** higher

**Q.** And the “plasma drug exposure compared to 3APS (of natural abundance)” value (mole-equivalent oral dose (0.72 mmol/kg), mouse plasma)?
**A.** improved plasma drug exposure significantly

**Q.** What about the “drug metabolism / metabolic profile compared to 3APS” value (mole-equivalent oral dose, mouse) of the same compound?
**A.** delayed drug metabolism; also recorded: delayed metabolic profile
